Assay results taken from US20230097883A1, “ERGOTHIONEINE PET COMPOUNDS AND METHODS OF USE THEREOF” (VANDERBILT UNIVERSITY, priority 2021, published 2023).

Key:
[1] = system: 5XFAD mice; experiment: Elevated zero maze after ERGO treatment; format: in vivo, mouse
Method: (§1) To address our primary question whether longitudinal consumption of ERGO as a potent antioxidant benefit the brain, three cohorts of animals (n=12 non-treated WT control, n=12 non-treated 5XFAD, and n=18 ERGO-treated 5XFAD) were used (FIG. 3.2A). Starting at the age of 8 weeks, the animals were treated with high doses of ERGO solution (25-50 mg/Kg) formulated in double distilled (dd) water via oral gavage three times a week over the course of eight weeks. To reduce bias in the behavioral experiments with regard to the potential stress during gavage treatment, non-treated animals underwent the identical gavage process with the vehicle, water, only. The efficacy of the therapy was evaluated by behavioral testing, followed by three different non-invasive PET imaging sessions to assess biomarkers related to AD pathology. In addition to assessing Abeta levels and glucose metabolism using the [^11C]PIB and [^18F]FDG probes, respectively; we also tested for the first time whether oxidative stress could be used as an indicator of response to therapy using the [^11C]ERGO PET radioligand. […]
We recorded exploratory activity in open versus closed zones of a standard EZM during a 5-min trial. […] Closed zones had walls of approximately 30 cm height and light levels of 215-280 lux depending on where they were measured. […]

[2] = system: 5XFAD mice; experiment: Novel object recognition after ERGO treatment; format: in vivo, mouse; conditions: ERGO-treated 5XFAD versus non-treated 5XFAD and WT, final test trial
Method: as §1, with “pathology.” for “pathology. In addition to assessing Abeta levels and glucose metabolism using the [^11C]PIB and [^18F]FDG probes, respectively; we also tested for the first time whether oxidative stress could be used as an indicator of response to therapy using the [^11C]ERGO PET radioligand.”
Mice were first allowed to habituate to an open arena for 5 min (white acrylic box, approximately 40 cm^2) located under a camera to record position and movement during trials. […] Preference for either object was inferred from exploratory proximity which was recorded automatically using AnyMaze using a target area comprising a circle with diameter 2-cm larger than the target objects. […]

[3] = system: glucose metabolism; experiment: [18F]FDG PET imaging of glucose metabolism after ERGO treatment; format: in vivo, mouse; conditions: 6-month-old 5XFAD, ERGO 6 doses each 50 mg/Kg during 2 weeks, versus non-treated 5XFAD, n=3
Method: The brain consumes a significant amount of glucose, approximately 25% of the body's glucose. It is well known that glucose metabolism is diminished in the early onset of AD. Therefore, [^18F]FDG PET imaging to assess glucose levels could be used for AD diagnosis. For this purpose, three cohorts of age-matched mice (6-month-old, n=3 for each cohort), including WT, non-treated 5XFAD and ERGO-treated 5XFAD (6 doses, each 50 mg/Kg during the course of 2 weeks) were studied. Afterward, animals were injected with [^18F]FDG probe (15 MBq, 100 μL/mouse) and underwent […] dynamic PET scans and CT scans.
The dynamic acquisition was divided into twelve 5-second frames, four 60-second frames, five 120-second frames, three 5-min frames, and six 10-min scans. The data from all possible lines of response (LOR) were saved in the list mode raw data format. The raw data were then binned into 3D sinograms with a span of 3 and ring difference of 47. The images were reconstructed into transaxial slices (128×128×159) with voxel sizes of 0.0815×0.0815×0.0796 cm^3, using the MAP algorithm with 16 subsets, 4 iterations, and a beta of 0.0468. For anatomical co-registration, immediately following the PET scans, the mice received a CT scan in a NanoSPECT/CT (Mediso, Wash. D.C.) at an X-ray beam intensity of 90 mAs and x-ray peak voltage of 45 kVp. […]

[4] = Ex-vivo cut-and-count whole-body biodistribution of I.V.-injected [11C]ERGO in WT mice; parameters: species or system mouse; conditions: pharmacokinetic study

Row | SMILES | adverse effects on activity or anxiety-like behavior ([1]; 5XFAD mice, ERGO 25-50 mg/Kg oral gavage three times a week over eight weeks) | time spent exploring the closed zones ([1]; ERGO-treated 5XFAD mice (each group), 5-min trial) [%] | discrimination index [2] | glucose levels in the brain ([18F]FDG uptake, SUV) [3] | time after injection at which the concentration in the serum started to decrease [4] [min]
1 | C[N+](C)(C)[C@@H](Cc1c[nH]c(=S)[nH]1)C(=O)[O-] [ERGO, L-ergothioneine] | no adverse effects | ~60 | did not vary among the groups | significantly elevated | 
2 | C[N+](C)([11CH3])[C@@H](Cc1c[nH]c(=S)[nH]1)C(=O)[O-] [[^11C]ERGO] |  |  |  |  | 10
